Source: patent publication US8178506B2, “Oligomeric compounds and compositions for use in modulation of small non-coding RNAs” (Regulus Therapeutics Inc., priority 2003, dated 2012)
In the oligonucleotide strings, read from the 5' end, every base follows the letter of its sugar. An asterisk marks phosphorothioate; unmarked linkages are phosphodiester. Other units and linkages are bracketed, terminal groups are in braces. A string of capitals states the bases alone. e = 2'-O-(2-methoxyethyl) (MOE); [5mC] = 5-methylcytosine; d = 2'-deoxy (DNA)

Key:
Format in all cases: cell-based, human
adipocytes = test: Triglyceride accumulation assay in adipocytes; details: for Triglycerides: differentiating adipocytes day 10 post-induction, 24 hours after treatment
aP2 = aP2 mRNA expression in adipocytes (real-time PCR); details: for aP2 mRNA: Table 75
HSL = HSL mRNA expression in adipocytes (real-time PCR)
Glut4 = Glut4 mRNA expression in adipocytes (real-time PCR)
PPARγ = PPARγ mRNA expression in adipocytes (real-time PCR); details: for PPAR-gamma mRNA: differentiating adipocytes day 10 post-induction, 24 hours after treatment
[1] = Table 18, differentiating adipocytes, control = treatment with ISIS 342673
[2] = differentiating adipocytes transfected with oligomeric compound, Table 75
[3] = differentiating adipocytes transfected with oligomeric compound
[4] = Table 17, differentiating adipocytes, control = treatment with ISIS 342673
[5] = Table 20, adipocyte differentiation assay as in Example 13
[6] = 50 nM, differentiating adipocytes day 10 post-induction, 24 hours after treatment
[7] = 100 nM, differentiating adipocytes day 10 post-induction, 24 hours after treatment
[8] = 200 nM, differentiating adipocytes day 10 post-induction, 24 hours after treatment
[9] = 300 nM, differentiating adipocytes day 10 post-induction, 24 hours after treatment

Substance: 328110 (antisense eG*eA*eT*eA*eA*eA*eG*e[5mC]*e[5mC]*eA*eA*eT*eA*eA*eA*e[5mC]*eT*eG*eT*e[5mC]*eA) [compound 328110]
- TG (triglyceride accumulation) (adipocytes; [1]): 97.7 percentage of control
- TG (triglyceride accumulation) (adipocytes; [2]): 96 percentage of untreated control (UTC)
- AP2 mRNA (aP2; [1]): 93.3 percentage of control
- aP2 mRNA (aP2; [3]): 89 percentage of untreated control (UTC)
- HSL mRNA (HSL; [1]): 91.0 percentage of control
- HSL mRNA (HSL; [2]): 84 percentage of untreated control (UTC)
- GLUT4 mRNA (Glut4; [1]): 104.7 percentage of control
- GLUT4 mRNA (Glut4; [2]): 77 percentage of untreated control (UTC)
- PPAR gamma mRNA (PPARγ; [1]): 91.2 percentage of control
- PPAR gamma mRNA (PPARγ; [2]): 80 percentage of untreated control (UTC)

Substance: 328125 (antisense eT*eA*eT*eG*eA*eA*eA*eT*eG*e[5mC]*e[5mC]*eA*eG*eA*eG*e[5mC]*eT*eG*e[5mC]*e[5mC]*eA) [compound 328125]
- TG (triglyceride accumulation) (adipocytes; [4]): 81.7 percentage of control
- TG (triglyceride accumulation) (adipocytes; [2]): 44 percentage of untreated control (UTC)
- AP2 mRNA (aP2; [4]): 86.9 percentage of control
- aP2 mRNA (aP2; [3]): 75 percentage of untreated control (UTC)
- HSL mRNA (HSL; [4]): 75.8 percentage of control
- HSL mRNA (HSL; [2]): 48 percentage of untreated control (UTC)
- GLUT4 mRNA (Glut4; [4]): 99.5 percentage of control
- GLUT4 mRNA (Glut4; [2]): 65 percentage of untreated control (UTC)
- PPAR gamma mRNA (PPARγ; [4]): 76.1 percentage of control
- PPAR gamma mRNA (PPARγ; [2]): 68 percentage of untreated control (UTC)

Substance: 328114 (antisense eA*eA*eT*e[5mC]*eT*e[5mC]*eA*eT*eT*eT*eT*e[5mC]*eA*eT*eA*e[5mC]*eT*eT*eG*e[5mC]*eA) [compound 328114]
- TG (triglyceride accumulation) (adipocytes; [1]): 117.3 percentage of control
- TG (triglyceride accumulation) (adipocytes; [3]): 110 percentage of untreated control (UTC)
- AP2 mRNA (aP2; [1]): 94.4 percentage of control
- AP2 mRNA (aP2; [3]): 123 percentage of untreated control (UTC)
- HSL mRNA (HSL; [1]): 93.3 percentage of control
- HSL mRNA (HSL; [3]): 134 percentage of untreated control (UTC)
- GLUT4 mRNA (Glut4; [1]): 114.9 percentage of control
- GLUT4 mRNA (Glut4; [3]): 116 percentage of untreated control (UTC)
- PPAR gamma mRNA (PPARγ; [1]): 89.3 percentage of control
- PPAR gamma mRNA (PPARγ; [3]): 106 percentage of untreated control (UTC)

Substance: 328685 (e[5mC]*eG*eG*e[5mC]*e[5mC]*dG*dG*dA*dG*d[5mC]*d[5mC]*dA*dT*dA*dG*eA*e[5mC]*eT*e[5mC]*eG; antisense) [compound 328685]
- TG (triglyceride accumulation) (adipocytes; [3]): 50 percentage of untreated control (UTC)
- AP2 mRNA (aP2; [3]): 73 percentage of untreated control (UTC)
- HSL mRNA (HSL; [3]): 100 percentage of untreated control (UTC)
- GLUT4 mRNA (Glut4; [3]): 69 percentage of untreated control (UTC)
- PPAR gamma mRNA (PPARγ; [3]): 91 percentage of untreated control (UTC)

Substance: 328136 (eA*eA*e[5mC]*eT*eA*e[5mC]*eT*eT*e[5mC]*e[5mC]*eA*eG*eA*eG*e[5mC]*eA*eG*eG*eT*eG*eA; anti-miR) [compound 328136]
- TG (triglyceride accumulation) (adipocytes; [4]): 47.0 percentage of control
- TG (triglyceride accumulation) (adipocytes; [2]): 26 percentage of untreated control (UTC)
- AP2 mRNA (aP2; [4]): 73.0 percentage of control
- aP2 mRNA (aP2; [3]): 57 percentage of untreated control (UTC)
- HSL mRNA (HSL; [4]): 65.0 percentage of control
- HSL mRNA (HSL; [2]): 37 percentage of untreated control (UTC)
- GLUT4 mRNA (Glut4; [4]): 66.7 percentage of control
- GLUT4 mRNA (Glut4; [2]): 35 percentage of untreated control (UTC)
- PPAR gamma mRNA (PPARγ; [4]): 72.7 percentage of control
- PPAR gamma mRNA (PPARγ; [2]): 54 percentage of untreated control (UTC)

Substance: 341803 (antisense CCACACACTTCCTTACATTCCA; all 2'-MOE, all phosphorothioate, methylation of C not given here) [compound 341803]
- TG (triglyceride accumulation) (adipocytes; [1]): 85.9 percentage of control
- AP2 mRNA (aP2; [1]): 77.3 percentage of control
- aP2 mRNA (aP2; [3]): 85 percentage of untreated control (UTC)
- HSL mRNA (HSL; [1]): 75.5 percentage of control
- HSL mRNA (HSL; [2]): 79 percentage of untreated control (UTC)
- GLUT4 mRNA (Glut4; [1]): 86.8 percentage of control
- GLUT4 mRNA (Glut4; [2]): 73 percentage of untreated control (UTC)
- PPAR gamma mRNA (PPARγ; [1]): 71.2 percentage of control
- PPAR gamma mRNA (PPARγ; [2]): 68 percentage of untreated control (UTC)

Substance: 341807 (antisense CTGGGACTTTGTAGGCCAGTT; all 2'-MOE, all phosphorothioate, methylation of C not given here) [compound 341807]
- TG (triglyceride accumulation) (adipocytes; [1]): 114.1 percentage of control
- AP2 mRNA (aP2; [1]): 74.8 percentage of control
- aP2 mRNA (aP2; [3]): 82 percentage of untreated control (UTC)
- HSL mRNA (HSL; [1]): 96.8 percentage of control
- HSL mRNA (HSL; [2]): 102 percentage of untreated control (UTC)
- GLUT4 mRNA (Glut4; [1]): 119.5 percentage of control
- GLUT4 mRNA (Glut4; [2]): 101 percentage of untreated control (UTC)
- PPAR gamma mRNA (PPARγ; [1]): 86.2 percentage of control
- PPAR gamma mRNA (PPARγ; [2]): 83 percentage of untreated control (UTC)

Substance: 340927 (antisense eT*eG*eA*eG*e[5mC]*dT*dA*d[5mC]*dA*dG*dT*dG*d[5mC]*dT*dT*e[5mC]*eA*eT*e[5mC]*eT*e[5mC]*eA) [compound 340927]
- TG (adipocytes; [5]): 0.65
- AP2 (aP2; [5]): 0.77
- HSL (HSL; [5]): 0.73
- Glut4 (Glut4; [5]): 0.54
- PPAR gamma (PPARγ; [5]): 0.36

Substance: 342673 (antisense eA*eG*eA*e[5mC]*eT*eA*eG*e[5mC]*eG*eG*eT*eA*eT*e[5mC]*eT*eT*eT*eA*eT*e[5mC]*e[5mC]*e[5mC]) [compound 342673]
- Triglycerides (adipocytes; 50 nM): 94.2 % UTC
- Triglycerides (adipocytes; 100 nM): 105.3 % UTC
- Triglycerides (adipocytes; 200 nM): 98.3 % UTC
- Triglycerides (adipocytes; 300 nM): 108.2 % UTC
- TG (triglyceride accumulation) (adipocytes; [4]): 100.0 percentage of control
- TG (triglyceride accumulation) (adipocytes; [1]): 100 percentage of control
- AP2 mRNA (aP2; [6]): 82.4 % UTC
- AP2 mRNA (aP2; [7]): 90.3 % UTC
- AP2 mRNA (aP2; [8]): 81.1 % UTC
- AP2 mRNA (aP2; [9]): 70.9 % UTC
- AP2 mRNA (aP2; [4]): 100.0 percentage of control
- AP2 mRNA (aP2; [1]): 100 percentage of control
- HSL mRNA (HSL; [6]): 92.0 % UTC
- HSL mRNA (HSL; [7]): 95.6 % UTC
- HSL mRNA (HSL; [8]): 97.3 % UTC
- HSL mRNA (HSL; [9]): 85.2 % UTC
- HSL mRNA (HSL; [4]): 100.0 percentage of control
- HSL mRNA (HSL; [1]): 100 percentage of control
- GLUT4 mRNA (Glut4; [6]): 94.9 % UTC
- GLUT4 mRNA (Glut4; [7]): 90.7 % UTC
- GLUT4 mRNA (Glut4; [8]): 97.6 % UTC
- GLUT4 mRNA (Glut4; [9]): 102.7 % UTC
- GLUT4 mRNA (Glut4; [4]): 100.0 percentage of control
- GLUT4 mRNA (Glut4; [1]): 100 percentage of control
- PPAR-gamma mRNA (PPARγ; 50 nM): 77.5 % UTC
- PPAR-gamma mRNA (PPARγ; 100 nM): 89.9 % UTC
- PPAR-gamma mRNA (PPARγ; 200 nM): 94.6 % UTC
- PPAR-gamma mRNA (PPARγ; 300 nM): 85.8 % UTC
- PPAR gamma mRNA (PPARγ; [4]): 100.0 percentage of control
- PPAR gamma mRNA (PPARγ; [1]): 100 percentage of control

Substance: 341800 (antisense AAGCCCAAAAGGAGAAUUCUUUG; all 2'-MOE, all phosphorothioate, methylation of C and T or U not given here) [compound 341800]
- TG (triglyceride accumulation) (adipocytes; [2]): 18 percentage of untreated control (UTC)
- aP2 mRNA (aP2; [3]): 50 percentage of untreated control (UTC)
- HSL mRNA (HSL; [2]): 42 percentage of untreated control (UTC)
- GLUT4 mRNA (Glut4; [2]): 28 percentage of untreated control (UTC)
- PPAR gamma mRNA (PPARγ; [2]): 61 percentage of untreated control (UTC)

Substance: 328105 (antisense e[5mC]*e[5mC]*eT*e[5mC]*eA*eA*eT*eT*eA*eT*eT*eG*eG*eA*eA*eA*eT*e[5mC]*eA*e[5mC]*eA) [compound 328105]
- TG (triglyceride accumulation) (adipocytes; [1]): 93.1 percentage of control
- TG (triglyceride accumulation) (adipocytes; [2]): 82 percentage of untreated control (UTC)
- AP2 mRNA (aP2; [1]): 88.2 percentage of control
- aP2 mRNA (aP2; [3]): 102 percentage of untreated control (UTC)
- HSL mRNA (HSL; [1]): 94.2 percentage of control
- HSL mRNA (HSL; [2]): 95 percentage of untreated control (UTC)
- GLUT4 mRNA (Glut4; [1]): 94.2 percentage of control
- GLUT4 mRNA (Glut4; [2]): 75 percentage of untreated control (UTC)
- PPAR gamma mRNA (PPARγ; [1]): 93.3 percentage of control
- PPAR gamma mRNA (PPARγ; [2]): 85 percentage of untreated control (UTC)

Substance: 328362 (eT*eG*eT*eG*eT*dT*dT*dT*d[5mC]*dT*dG*dA*d[5mC]*dT*d[5mC]*eA*eG*eT*e[5mC]*eA) [compound 328362]
- TG (triglyceride accumulation) (adipocytes; [3]): 73 percentage of untreated control (UTC)
- AP2 mRNA (aP2; [3]): 59 percentage of untreated control (UTC)
- HSL mRNA (HSL; [3]): 83 percentage of untreated control (UTC)
- GLUT4 mRNA (Glut4; [3]): 80 percentage of untreated control (UTC)
- PPAR gamma mRNA (PPARγ; [3]): 78 percentage of untreated control (UTC)

Substance: 328111 (antisense eT*e[5mC]*e[5mC]*eG*eA*eG*eT*e[5mC]*eG*eG*eA*eG*eG*eA*eG*eG*eA*eG*eG*eA*eA) [compound 328111]
- TG (triglyceride accumulation) (adipocytes; [1]): 101.9 percentage of control
- TG (triglyceride accumulation) (adipocytes; [2]): 65 percentage of untreated control (UTC)
- AP2 mRNA (aP2; [1]): 71.5 percentage of control
- aP2 mRNA (aP2; [3]): 79 percentage of untreated control (UTC)
- HSL mRNA (HSL; [1]): 69.5 percentage of control
- HSL mRNA (HSL; [2]): 77 percentage of untreated control (UTC)
- GLUT4 mRNA (Glut4; [1]): 59.6 percentage of control
- GLUT4 mRNA (Glut4; [2]): 50 percentage of untreated control (UTC)
- PPAR gamma mRNA (PPARγ; [1]): 74.9 percentage of control
- PPAR gamma mRNA (PPARγ; [2]): 65 percentage of untreated control (UTC)
